Results on 3 molecules are retold here after patent publication US20050101482A1, “Novel adsorbent” (priority 2001, published 2005).

For data set [1] the following is noted: orally ingested into human beings; cited from earlier work.
The nature of data set [2]: Concentration of Erythromycin in the blood of rabbits. The class given is in vivo. The conditions noted are these: rabbit, 1.5 hours after the oral ingestion of 40 mg per head, groups taking and not taking the adsorbent alike. The procedure:
The symptom of diarrhea was manifested in 100% of the rabbits of the group not using the adsorbent and 0% of the rabbits of the group using the adsorbent. At this time, in the group of rabbits taking the adsorbent and the group of rabbits not taking the adsorbent alike, the concentration of Erythromycin in the blood measured 1.5 hours after the oral ingestion was invariably in the range of 0.12-0.13 μg/ml.

For data set [3] the following is noted: in human beings; cited from earlier work.
For data set [4] the following is noted: orally ingested to a rabbit; cited from earlier work.

Each structure is given as a SMILES string.

For `OCCOCCO` [Diethylene glycol], the “toxicity LD50” value in data set [1] is recorded as 1000 mg/kg.

Turning to `CC[C@H]1OC(=O)[C@H](C)[C@@H](O[C@H]2C[C@@](C)(OC)[C@@H](O)[C@H](C)O2)[C@H](C)[C@@H](O[C@@H]2O[C@H](C)C[C@H](N(C)C)[C@H]2O)[C@](C)(O)C[C@@H](C)C(=O)[C@H](C)[C@@H](O)[C@]1(C)O` [Erythromycin], the concentration at 1.5 h in data set [2] was in the range of 120 to 130 ng/mL. Take `C[C@H]1CC[C@@H]2[C@@H](C)[C@H]3[C@H](C[C@H]4[C@@H]5CC=C6C[C@@H](O[C@@H]7O[C@H](CO)[C@H](O)[C@H](O[C@@H]8O[C@H](CO)[C@@H](O)[C@H](O)[C@H]8O)[C@H]7O[C@H]7O[C@@H](C)[C@H](O)[C@@H](O)[C@H]7O)CC[C@]6(C)[C@H]5CC[C@]34C)N2C1` [Solanine]: the concentration causing poisoning in data set [3] is 0.2 to 0.4 g. Moreover, the median lethal dose (LD50) (commonly the dose expected to kill half of the subjects tested) in data set [4] is 450 mg/kg.
